Measurements reported in PMC7501730, “Discovery of novel small molecule inhibitors of S100P with in vitro anti-metastatic effects on pancreatic cancer cells” (European Journal of Medicinal Chemistry, 2020).

Legend:
S100P-RAGE interaction = target: T1, S100P-RAGE interaction (Homo sapiens, UniProt P25815); experiment: ELISA of S100P-RAGE binding inhibition; details: for IC50 / ELISA inhibition: Table 2; for IC50: analog series of hit 4, read-out: Estimated IC50; for ELISA inhibition: concentration with significant inhibition of S100P-RAGE binding, asterisks = significance by one-way ANOVA
T1 construct: His tag (N); made in house; host or cells: Escherichia coli BL21*
T1 sequence (P25815 1-95): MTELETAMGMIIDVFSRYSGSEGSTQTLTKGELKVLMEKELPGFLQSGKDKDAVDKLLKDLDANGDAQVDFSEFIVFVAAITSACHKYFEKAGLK
Experimental: The purchased computational screening hits were subjected to initial biological testing for inhibition of S100P-RAGE binding (ELISA), with cromolyn as positive control, using an adaptation of the reported ELISA for S100 family members.
Fig. 2 Effects of compounds 1–14 on S100P binding to RAGE. Human S100P (2 μM) coated wells were incubated with increasing concentrations of the compound tested, in triplicate, and exposed to human RAGE-Fc (100 nM) followed by goat anti-human secondary antibody to detect RAGE bound S100P. Data are compared to S100P/RAGE binding with no inhibitor (DMSO, 100%) and are presented as mean ± SEM; data is significant by one way ANOVA, where ∗ = p < 0.05, ∗∗ = p < 0.01 and ∗∗∗ = p < 0.001; n = 9 from 3 plates.
To generate human S100P recombinant protein, a pQE-30 ([…]) plasmid encoding S100P with N-terminal histidine tags (gifted by Dr Igor Barsukov, Liverpool University, UK), was transformed into BL21∗ competent Escherichia coli cells. Recombinant protein was purified using a HisTrap Nickel-nitrilotriacetic acid (Ni-NTA) agarose column (GE Healthcare, UK).
Purified recombinant S100P (2μM/well) in phosphate buffer (PBS; 137 mM NaCl, 2.7 mM KCl, 10 mM Na2HPO4, 1.8 mM KH2PO4, pH 7.4; supplemented with 1 mM CaCl2, 10 μM ZnCl2, and 0.5 mM MgCl2) was used for coating a 96 well plate (NunclonDelta, Fisher), and incubated overnight at 37 °C.
Following washing, S100P non-specific binding sites were blocked with 1% bovine serum albumin (BSA; Fisher, UK) in PBS for 2 h at 37 °C. Following three washes, S100P was incubated with increasing concentrations of compounds, in parallel to cromolyn and DMSO treated wells, all in triplicate. Then 30 nM recombinant human receptor for advanced glycation end products (rh/RAGE-Fc; R&D Systems) was added and incubated for 1 h at 37 °C. Controls included a negative control (S100P protein, no RAGE-Fc), a positive control (S100P protein plus RAGE), and vehicle control (0.001% DMSO in PBS) were included in each plate. After three washes in PBS, all wells were exposed to goat anti-human HRP conjugate (1:1000; Millipore) for 1 h at 37 °C in order to detect bound receptors. Subsequent to washes, wells were incubated for 20 min in the dark with 3,3′,5,5′-tetramethylbenzidene (TMB) substrate (Sigma, UK). Plates were read at 450 nm using a Multiskan Ascent spectrophotometer (Fisher Scientific, UK). All sample readings were normalized to the positive control (S100P plus RAGE-Fc). Statistical analysis was performed and graphs plotted using the GraphPad Prism software in the following way: One Way ANOVA was used to compare the effects of concentration of each compound to the effects of vehicle control (DMSO), and p values of <0.05 were considered statistically significant. A post hoc analysis was conducted using Dunnetts multiple comparisons test; results are indicated by ∗ = p < 0.05; ∗∗ = p < 0.01 and ∗∗∗ = p < 0.001.

[1] = test system: BxPC-3 cells (S100P-expressing); experiment: LDH release cytotoxicity assay, BxPC-3; assay type: cell-based, Human; details: BxPC-3, 10 μM, over three days incubation, compared to vehicle control
Experimental: Metabolic activity and cytotoxicity/cytolysis were measured with the MTS (CellTiter® 96 AQueous One Solution assay, Promega) and LDH release (CytoTox-ONE™ Homogeneous Membrane Integrity assay, Promega) assays respectively, in S100P-expressing (BxPC-3) and S100P-negative (Panc-1) cell lines, at a compound concentration of 10 μM. Cromolyn was used as a positive control.
1 × 10^5 Panc-1 cells and 1x10^5 BxPC-3 cells were plated and allowed to adhere for 24 h; the cells were treated with cromolyn or the hit compounds for up to 3 days. MTS (CellTiter® 96 AQueous One Solution assay, Promega) and LDH release (CytoTox-ONE™ Homogeneous Membrane Integrity assay, Promega) assays were carried out every 24 h for a total of 3 days. MTS data was calculated in the following manner: OD for background absorbance was subtracted and all samples normalized to untreated cells in order to ascertain whether any compound-dependent effect occurred.
(§3) Since formazan formation is proportional to LDH release, data was calculated by subtracting the OD background and plotting the mean ± SEM.
10^5 BxPC3 cells were treated with 10 µM hit compounds for 24 hours, and the effect on LDH staining for each time point measured by fluorescence microplate reader.

[2] = test system: Panc-1 cells (S100P-negative); experiment: LDH release cytotoxicity assay, Panc-1; assay type: cell-based, Human; details: Panc-1, 10 μM, over three days incubation, compared to vehicle control
Experimental: Metabolic activity and cytotoxicity/cytolysis were measured with the MTS (CellTiter® 96 AQueous One Solution assay, Promega) and LDH release (CytoTox-ONE™ Homogeneous Membrane Integrity assay, Promega) assays respectively, in S100P-expressing (BxPC-3) and S100P-negative (Panc-1) cell lines, at a compound concentration of 10 μM. Cromolyn was used as a positive control. […]
1 × 10^5 Panc-1 cells and 1x10^5 BxPC-3 cells were plated and allowed to adhere for 24 h; the cells were treated with cromolyn or the hit compounds for up to 3 days. […] MTS data was calculated in the following manner: OD for background absorbance was subtracted and all samples normalized to untreated cells in order to ascertain whether any compound-dependent effect occurred.
as §3
10^5 Panc- 1 cells were treated with 10 µM hit compounds for 24 hours, and the effect on LDH staining for each time point measured by fluorescence microplate reader.

[3] = test system: BxPC-3 cells (S100P-positive); experiment: Transwell Matrigel invasion assay, BxPC-3; assay type: cell-based, Human; details: 10% FBS chemoattractant
Experimental: The effect of the S100P-binding hit compounds to inhibit cell invasion in S100P-expressing cells in vitro was measured via a Transwell invasion assay. In this assay, cells invade through the matrigel on upper Transwell chamber towards a lower chamber containing a chemoattractant.
Data is shown as mean ± SEM number of invasive cells as counted under the microscope (x100).
The Transwell invasion assay (Fisher Scientific, Germany) was performed using chambers with polyethylene terephthalate (PET) membrane filters with 8 μm pore size coated on the upper side with Matrigel (a layer of extracellular matrix (ECM) to mimic the process of the ECM invasion.
BxPC-3 and Panc-1 cells were cultured as described above for 24 h, were re-suspended and diluted in the appropriate serum-free medium to a seeding density of 2 × 10^5 cells/mL and added to the upper chambers of the Transwell invasion chambers. DMEM and RPMI-1640 media were supplemented with 10% fetal bovine serum (FBS; Sigma, USA) to act as a chemoattractant. […]
Cells that had passed through the matrigel coated membrane to the lower surface were fixed and stained with Diff-Quik stain kit (Fisher, USA) according to the manufacturer’s instructions. […] The number of invaded cells were counted in five different fields of view using the ImageJ 1.50i software (windows version of NIH Image, http://rsb.info.nih.gov/nih-image/). […]

BxPC-3 cells = experiment: LDH release from cells in upper Transwell chamber, BxPC-3; assay type: cell-based, Human; details: BxPC-3, 48 h; hit compounds 10 μM, cromolyn 10, 100 and 300 μM
Experimental: (§1) In order to exclude any possibility that reduced cell invasiveness was due to cell death during the time period of the assay, the viability of cells in the upper Transwell® chamber was assessed via measurement of LDH release. […] (Supplementary Data).
(§2) Figure S2: No significant difference in cell toxicity, measured by LDH release, is observed between treated and untreated cells in the Transwell® invasion assay. Cytotoxicity was measured using the medium recovered from the upper chamber of each Transwell ® chamber which contained BxPC-3 (A) and Panc-1 (B) cells treated with cromolyn (10 µM, 100 µM, and 300 µM) and hit compounds (10 µM) and incubated for 48 h. Data are the mean ± SEM of three independent experiments (n=3). One-way ANOVA assessed significance, and Dunnett post-hoc test is denoted by ns=P>0.05 in comparison to untreated control.

Panc-1 cells = experiment: LDH release from cells in upper Transwell chamber, Panc-1; assay type: cell-based, Human; details: Panc-1, 48 h; hit compounds 10 μM, cromolyn 10, 100 and 300 μM
Experimental: as §1, §2

Compound | concentration with significant inhibition of S100P-RAGE binding (S100P-RAGE interaction; ELISA) | IC50 (S100P-RAGE interaction; ELISA) | ELISA inhibition (S100P-RAGE interaction) | melting point | maximum inhibition of S100P-RAGE binding (S100P-RAGE interaction; ELISA) | cytotoxicity (LDH release) [1] | cytotoxicity (LDH release) [2] | inhibition of cell invasion to the lower chamber ([3]; BxPC-3, 10 μM, 48 h) | concentration with significant inhibition of invasion ([3]; BxPC-3, 48 h) | LDH release of cells in upper Transwell chamber (BxPC-3 cells) | LDH release of cells in upper Transwell chamber (Panc-1 cells)
O=C(O)c1ccc(N2C(=O)C3C4c5ccccc5C([N+](=O)[O-])(c5ccccc54)C3C2=O)cc1 (stereo not drawn) [Compound 4f, 4-(9-Nitro-12,14-dioxo-9,10-dihydro-9,10-[3,4]epipyrroloanthracen-13-yl)benzoic acid] | ≤ 100 nM | 0.482 nM | <10 nM∗∗∗ | 344 to 345 °C | – | – | – | – | – | – | –
O=C1C2C3c4ccccc4C(c4ccccc43)C2C(=O)N1c1cccc(F)c1 (stereo not drawn) [Compound 4o, 13-(3-fluorophenyl)-9,10-dihydro-9,10-[3,4]epipyrroloanthracene-12,14-dione] | ≤ 100 nM | 1.3 nM | 10 nM∗ | 228 to 230 °C | – | – | – | – | – | – | –
O=C1C2C3c4ccccc4C(c4ccccc43)C2C(=O)N1c1ccccc1 (stereo not drawn) [Compound 4r, 13-Phenyl-9,10-dihydro-9,10-[3,4]epipyrroloanthracene-12,14-dione] | ≤ 100 nM | 0.796 nM | 10 nM∗ | 211 to 215 °C | – | – | – | – | – | – | –
O=C1C2C3c4ccccc4C(c4ccccc43)C2C(=O)N1c1ccc(F)cc1 (stereo not drawn) [Compound 4u, 13-(4-fluorophenyl)-9,10-dihydro-9,10-[3,4]epipyrroloanthracene-12,14-dione] | ≤ 100 nM | 4.15 nM | 10 nM∗ | 250 to 253 °C | – | – | – | – | – | – | –
O=C(O)c1cc(=O)c2c(OCC(O)COc3cccc4oc(C(=O)O)cc(=O)c34)cccc2o1 [cromolyn] | ≥ 100 nM | – | – | – | 56% | neither the hit compounds nor cromolyn exhibited cytotoxicity | neither the hit compounds nor cromolyn exhibited cytotoxicity | did not exhibit a statistically significant effect | ≥ 100 µM | no significant increase in LDH release | no significant increase in LDH release
